From ChEMBL document CHEMBL1144842, “Design and campaign synthesis of piperidine- and thiazole-based histone deacetylase inhibitors” (Bioorg Med Chem Lett, 2008)
The source made the active and inactive calls. The rule behind the calls is not given here.

Key:
[1] = Lipophilicity, log D of the compound; details: octanol/water
HCT-116 = test: Antiproliferative activity against human HCT116 cells after 72 hrs by MTS assay; format: functional, cell-based; details: HCT-116, 72 h
Histone deacetylase = test: Inhibition of human HDAC in HeLa cells; format: cell-based
[2] = Unbound ligand in Han Wistar rat plasma at 70.9 umol.kg, po; format: ADME, organism-based
[3] = Half life in mouse at 70.9 umol/kg, po; format: ADME, organism-based; details: in vivo
[4] = Volume of distribution in steady state in Han Wistar rat at 5 umol/kg, iv; format: ADME, organism-based; details: in vivo, read-out: Vdss
[5] = Clearance in Han Wistar rat at 5 umol/kg, iv; format: ADME, organism-based; details: in vivo
Histone deacetylase 1 = Histone deacetylase 1 (Homo sapiens, UniProt Q13547); test: Inhibition of human recombinant HDAC1 expressed in Hi5 cells; design: species or system BTI-TN-5B1-4
Chain of Histone deacetylase 1 (Q13547 whole entry): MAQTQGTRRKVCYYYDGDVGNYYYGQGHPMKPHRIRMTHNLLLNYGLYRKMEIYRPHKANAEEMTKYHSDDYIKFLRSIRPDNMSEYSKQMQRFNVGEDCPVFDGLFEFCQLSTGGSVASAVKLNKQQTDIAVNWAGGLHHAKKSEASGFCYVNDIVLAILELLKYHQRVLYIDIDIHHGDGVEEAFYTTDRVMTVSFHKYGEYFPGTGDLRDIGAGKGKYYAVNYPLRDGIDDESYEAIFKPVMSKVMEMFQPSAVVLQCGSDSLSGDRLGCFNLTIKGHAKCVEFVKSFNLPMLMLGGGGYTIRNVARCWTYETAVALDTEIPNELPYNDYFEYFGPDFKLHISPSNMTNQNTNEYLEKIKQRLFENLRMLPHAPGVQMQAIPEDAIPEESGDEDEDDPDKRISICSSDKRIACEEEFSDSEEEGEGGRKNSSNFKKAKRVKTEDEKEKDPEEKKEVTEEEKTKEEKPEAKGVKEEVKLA

[6] = Half life in Han Wistar rat at 70.9 umol/kg, po; format: ADME, organism-based; details: in vivo
[7] = Solubility of the compound at pH 7.4; details: buffer
[8] = Half life in Han Wistar rat at 5 umol/kg, iv; format: ADME, organism-based; details: in vivo
Cytochrome P450 2C19 = Cytochrome P450 2C19 (Homo sapiens, UniProt P33261)
Chain of Cytochrome P450 2C19 (P33261 whole entry): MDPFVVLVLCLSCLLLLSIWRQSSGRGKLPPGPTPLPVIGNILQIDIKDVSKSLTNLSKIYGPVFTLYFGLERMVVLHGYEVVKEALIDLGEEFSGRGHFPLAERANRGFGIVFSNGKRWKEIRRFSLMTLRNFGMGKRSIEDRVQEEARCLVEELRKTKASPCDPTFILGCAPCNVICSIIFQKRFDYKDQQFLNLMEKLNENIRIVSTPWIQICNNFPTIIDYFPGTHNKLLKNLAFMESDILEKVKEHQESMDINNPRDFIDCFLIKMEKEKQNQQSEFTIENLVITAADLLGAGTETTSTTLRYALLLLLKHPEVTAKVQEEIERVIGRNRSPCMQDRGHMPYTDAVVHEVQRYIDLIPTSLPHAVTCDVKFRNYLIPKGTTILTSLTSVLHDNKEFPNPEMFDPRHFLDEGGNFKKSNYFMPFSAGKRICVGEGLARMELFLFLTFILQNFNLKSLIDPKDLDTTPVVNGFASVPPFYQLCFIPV

Cytochrome P450 2D6 = Cytochrome P450 2D6 (Homo sapiens, UniProt P10635)
Chain of Cytochrome P450 2D6 (P10635 whole entry): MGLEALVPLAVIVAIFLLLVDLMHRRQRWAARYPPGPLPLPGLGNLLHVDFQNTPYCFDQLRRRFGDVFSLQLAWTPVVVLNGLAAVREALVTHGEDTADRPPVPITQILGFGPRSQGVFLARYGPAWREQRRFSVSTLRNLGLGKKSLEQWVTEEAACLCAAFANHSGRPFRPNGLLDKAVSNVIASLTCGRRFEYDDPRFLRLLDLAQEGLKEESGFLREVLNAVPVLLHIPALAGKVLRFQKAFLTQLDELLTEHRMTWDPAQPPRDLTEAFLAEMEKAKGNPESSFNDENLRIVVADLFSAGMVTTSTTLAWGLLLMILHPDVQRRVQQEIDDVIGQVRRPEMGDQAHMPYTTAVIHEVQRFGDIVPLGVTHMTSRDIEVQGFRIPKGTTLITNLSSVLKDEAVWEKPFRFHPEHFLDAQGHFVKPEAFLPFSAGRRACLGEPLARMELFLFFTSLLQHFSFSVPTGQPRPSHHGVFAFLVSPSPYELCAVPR

Cytochrome P450 2C9 = Cytochrome P450 2C9 (Homo sapiens, UniProt P11712)
Chain of Cytochrome P450 2C9 (P11712 whole entry): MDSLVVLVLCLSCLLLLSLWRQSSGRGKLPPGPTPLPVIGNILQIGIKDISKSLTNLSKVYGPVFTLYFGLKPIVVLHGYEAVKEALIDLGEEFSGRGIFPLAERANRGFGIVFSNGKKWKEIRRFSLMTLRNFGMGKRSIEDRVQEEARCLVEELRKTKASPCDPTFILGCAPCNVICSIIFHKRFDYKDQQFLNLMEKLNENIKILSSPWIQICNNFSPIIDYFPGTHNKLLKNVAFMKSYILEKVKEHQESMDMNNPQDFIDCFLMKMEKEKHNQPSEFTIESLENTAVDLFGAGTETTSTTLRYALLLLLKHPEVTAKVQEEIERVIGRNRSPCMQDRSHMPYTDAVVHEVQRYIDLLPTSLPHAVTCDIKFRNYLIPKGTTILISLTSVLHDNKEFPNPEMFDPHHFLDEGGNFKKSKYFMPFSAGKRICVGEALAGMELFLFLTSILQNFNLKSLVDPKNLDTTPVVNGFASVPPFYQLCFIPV

Cytochrome P450 3A4 = Cytochrome P450 3A4 (Homo sapiens, UniProt P08684)
Chain of Cytochrome P450 3A4 (P08684 whole entry): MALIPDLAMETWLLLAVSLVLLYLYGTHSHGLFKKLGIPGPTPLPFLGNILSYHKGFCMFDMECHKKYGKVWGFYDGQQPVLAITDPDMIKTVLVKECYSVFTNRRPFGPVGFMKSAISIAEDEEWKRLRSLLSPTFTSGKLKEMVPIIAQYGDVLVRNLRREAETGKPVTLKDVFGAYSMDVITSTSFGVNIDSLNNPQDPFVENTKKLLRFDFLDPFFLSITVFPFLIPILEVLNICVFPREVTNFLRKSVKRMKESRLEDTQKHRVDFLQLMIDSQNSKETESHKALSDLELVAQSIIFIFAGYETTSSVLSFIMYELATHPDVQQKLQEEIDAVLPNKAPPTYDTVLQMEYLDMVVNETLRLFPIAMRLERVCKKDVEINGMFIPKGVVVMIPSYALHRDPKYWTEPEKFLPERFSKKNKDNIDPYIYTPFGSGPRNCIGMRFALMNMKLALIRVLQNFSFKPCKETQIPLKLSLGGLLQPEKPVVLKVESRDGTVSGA

[9] = Clearance in Beagle dog at 0.8 umol/kg, iv; format: ADME, organism-based, Canis lupus familiaris; details: in vivo
[10] = Volume of distribution in steady state in mouse at 5 umol/kg, iv; format: ADME, organism-based; details: in vivo, read-out: Vdss
[11] = Half life in Beagle dog at 0.8 umol/kg, iv; format: ADME, organism-based, Canis lupus familiaris; details: in vivo
[12] = Half life in Beagle dog at 3 umol/kg, po; format: ADME, organism-based, Canis lupus familiaris; details: in vivo
[13] = Clearance in mouse at 5 umol/kg, iv; format: ADME, organism-based; details: in vivo
[14] = Half life in mouse at 54.8 umol/kg, po; format: ADME, organism-based; details: in vivo
[15] = Half life in mouse at 5 umol/kg, iv; format: ADME, organism-based; details: in vivo
[16] = Volume of distribution in steady state in Han Wistar rat at 2.5 umol/kg, iv; format: ADME, organism-based; details: in vivo, read-out: Vdss
[17] = Clearance in Han Wistar rat at 2.5 umol/kg, iv; format: ADME, organism-based; details: in vivo
[18] = Unbound ligand in Beagle dog plasma at 3 umol/kg, po; format: ADME, organism-based, Canis lupus familiaris; details: at 3 µmol/kg
[19] = Volume of distribution in steady state in Beagle dog at 0.8 umol/kg, iv; format: ADME, organism-based, Canis lupus familiaris; details: in vivo, read-out: Vdss
[20] = Half life in Han Wistar rat at 2.5 umol/kg, iv; format: ADME, organism-based; details: in vivo
[21] = Half life in Han Wistar rat at 54.8 umol/kg, po; format: ADME, organism-based; details: in vivo
[22] = Unbound ligand in Han Wistar rat plasma at 54.8 umol/kg, po; format: ADME, organism-based; details: at 54.8 µmol/kg
Homo sapiens = test: Antitumor activity against human A549a xenografted mouse at 12.5 mg/kg, po for 18 days; format: functional, organism-based; design: dose 12.5 mg/kg
[23] = Half life in Han Wistar rat at 10 umol/kg, po; format: ADME, organism-based; details: in vivo
[24] = Unbound ligand in Han Wistar rat plasma at 10 umol/kg, po; format: ADME, organism-based
[25] = Unbound ligand in mouse plasma at 54.8 umol/kg, po; format: ADME, organism-based

Row | logD [1] | IC50 (HCT-116) [nM] | Log IC50 (Histone deacetylase) | IC50 (Histone deacetylase 1) [nM] | IC50 (Cytochrome P450 2C19) [nM] | IC50 (Cytochrome P450 2D6) [nM] | IC50 (Cytochrome P450 2C9) [nM] | IC50 (Cytochrome P450 3A4) [nM] | SMILES | further results
1 | 1.2 | 7410 | -4.78 | – | – | – | – | – | Nc1ccccc1NC(=O)c1ccc(N2CCOCC2)cc1 | –
2 | 1.99 | 437 | – | 30.9 | > 10000 | > 10000 | > 10000 | > 10000 | CNC(=O)c1ccc(CN2CCC(c3ccc(C(=O)Nc4ccccc4N)cc3)CC2)cc1 | –
3 | – | 437 | -4.57 | 44.7 | – | – | – | – | Nc1ccccc1NC(=O)c1ccc(C2CCN(Cc3ccccc3)CC2)cc1 | –
4 | < 0.5 | 832 | -5.23 | 138 | – | – | – | – | CN1CCC(c2ccc(C(=O)Nc3ccccc3N)cc2)CC1 | –
5 | – | 363 | – | 34.7 | – | – | – | – | CCNC(=O)c1ccc(CN2CCC(c3ccc(C(=O)Nc4ccccc4N)cc3)CC2)cc1 | clearance [9]: 7 mL/min/kg; Vd [10]: 5 L/kg; half-life [11]: 10.2 h; half-life [12]: 7.2 h; clearance [13]: 36 mL/min/kg; half-life [14]: 3.2 h; half-life [15]: 4.8 h; Vd [16]: 3.5 L/kg; clearance [17]: 16 mL/min/kg; fraction unbound [18]: 0.33; Vd [19]: 4.2 L/kg; half-life [20]: 1.7 h; half-life [21]: 3.7 h; fraction unbound [22]: 0.21; Activity (Homo sapiens): Active
6 | 1.53 | 479 | – | 85.1 | > 10000 | > 10000 | > 10000 | > 10000 | CN(C)C(=O)c1ccc(CN2CCC(c3ccc(C(=O)Nc4ccccc4N)cc3)CC2)cc1 | Vd [4]: 3.1 L/kg; clearance [5]: 49 mL/min/kg; half-life [14]: 3.8 h; half-life [23]: 2.1 h; fraction unbound [24]: 0.28; half-life [8]: 1.6 h; fraction unbound [25]: 0.4

More lines, now with the values behind:

Row | SMILES | logD [1] | IC50 (HCT-116) [nM] | Log IC50 (Histone deacetylase) | IC50 (Histone deacetylase 1) [nM] | IC50 (Cytochrome P450 2C19) [nM] | IC50 (Cytochrome P450 2D6) [nM] | IC50 (Cytochrome P450 2C9) [nM] | IC50 (Cytochrome P450 3A4) [nM] | further results
7 | Nc1ccccc1NC(=O)c1ccc(N2CCN(Cc3ccccc3)CC2)cc1 | – | 2340 | -4.44 | – | – | – | – | – | –
8 | CCNCc1cnc(-c2ccc(C(=O)Nc3ccccc3N)cc2)s1 | – | 204 | – | 38 | – | – | – | – | fraction unbound [2]: 0.54; half-life [3]: 1.1 h; Vd [4]: 7.3 L/kg; clearance [5]: 38 mL/min/kg; half-life [6]: 2.1 h; solubility [7]: > 500 µM; half-life [8]: 5.2 h
9 | Nc1ccccc1NC(=O)c1ccc(-c2ncc(CN3CCCCC3)s2)cc1 | – | 145 | – | 21.9 | – | – | – | – | –
10 | Nc1ccccc1NC(=O)c1ccc(C2CCN(CCC(=O)Nc3ccccc3F)CC2)cc1 | 2.76 | 302 | – | 67.6 | 10000 | 10000 | 10000 | 10000 | –
11 | Nc1ccccc1NC(=O)c1ccc(C2CCN(Cc3ccc(C(=O)NC4CC4)cc3)CC2)cc1 | 2.31 | 417 | – | 57.5 | > 10000 | > 10000 | > 10000 | > 10000 | –
12 | CCCNCc1cnc(-c2ccc(C(=O)Nc3ccccc3N)cc2)s1 | – | 186 | – | 27.5 | – | – | – | – | solubility [7]: > 500 µM
13 | Nc1ccccc1NC(=O)c1ccc(-c2nccs2)cc1 | – | 1820 | – | – | – | – | – | – | –
